# In ChEMBL document CHEMBL5465560, “Selectivity Literature for EUbOPEN Chemogenomic Library” (2024):
# Legend:
# [1] = target: T1, Serine/threonine-protein kinase Nek9 (Homo sapiens) (UniProt Q8TD19); assay: Selectivity interaction (KinomeScan (DiscoverX)) EUB0000229b NEK9; settings: at 10 µM
# T1 sequence (whole entry): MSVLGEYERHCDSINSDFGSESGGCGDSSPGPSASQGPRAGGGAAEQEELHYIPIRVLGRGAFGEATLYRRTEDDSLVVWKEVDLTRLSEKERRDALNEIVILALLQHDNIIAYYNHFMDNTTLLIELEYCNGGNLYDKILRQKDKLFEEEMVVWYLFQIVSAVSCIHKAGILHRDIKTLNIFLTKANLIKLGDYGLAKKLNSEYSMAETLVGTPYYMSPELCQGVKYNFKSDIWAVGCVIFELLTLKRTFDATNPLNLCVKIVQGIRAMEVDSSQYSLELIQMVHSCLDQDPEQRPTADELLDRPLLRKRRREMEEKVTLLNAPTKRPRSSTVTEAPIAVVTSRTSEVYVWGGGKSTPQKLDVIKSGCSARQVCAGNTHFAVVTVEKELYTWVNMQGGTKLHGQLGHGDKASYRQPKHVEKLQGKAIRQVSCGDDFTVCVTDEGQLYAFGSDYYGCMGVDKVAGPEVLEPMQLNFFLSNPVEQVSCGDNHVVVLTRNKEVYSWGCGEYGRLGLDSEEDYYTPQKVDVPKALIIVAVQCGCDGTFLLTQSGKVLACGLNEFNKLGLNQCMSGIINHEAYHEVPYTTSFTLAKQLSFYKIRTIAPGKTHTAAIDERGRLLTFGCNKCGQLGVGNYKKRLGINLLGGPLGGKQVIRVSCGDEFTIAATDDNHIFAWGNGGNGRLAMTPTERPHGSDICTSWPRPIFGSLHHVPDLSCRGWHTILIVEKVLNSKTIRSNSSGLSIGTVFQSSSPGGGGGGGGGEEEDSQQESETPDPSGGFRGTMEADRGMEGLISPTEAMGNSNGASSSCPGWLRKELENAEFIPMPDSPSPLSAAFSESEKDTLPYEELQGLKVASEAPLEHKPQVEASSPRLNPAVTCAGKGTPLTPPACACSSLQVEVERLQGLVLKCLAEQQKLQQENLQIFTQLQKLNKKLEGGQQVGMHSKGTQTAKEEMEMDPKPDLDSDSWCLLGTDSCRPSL
# [2] = target: T2, Serine/threonine-protein kinase TBK1 (Homo sapiens) (UniProt Q9UHD2); assay: Selectivity interaction (KinomeScan (DiscoverX)) EUB0001079a TBK1; settings: at 1 µM
# T2 sequence (whole entry): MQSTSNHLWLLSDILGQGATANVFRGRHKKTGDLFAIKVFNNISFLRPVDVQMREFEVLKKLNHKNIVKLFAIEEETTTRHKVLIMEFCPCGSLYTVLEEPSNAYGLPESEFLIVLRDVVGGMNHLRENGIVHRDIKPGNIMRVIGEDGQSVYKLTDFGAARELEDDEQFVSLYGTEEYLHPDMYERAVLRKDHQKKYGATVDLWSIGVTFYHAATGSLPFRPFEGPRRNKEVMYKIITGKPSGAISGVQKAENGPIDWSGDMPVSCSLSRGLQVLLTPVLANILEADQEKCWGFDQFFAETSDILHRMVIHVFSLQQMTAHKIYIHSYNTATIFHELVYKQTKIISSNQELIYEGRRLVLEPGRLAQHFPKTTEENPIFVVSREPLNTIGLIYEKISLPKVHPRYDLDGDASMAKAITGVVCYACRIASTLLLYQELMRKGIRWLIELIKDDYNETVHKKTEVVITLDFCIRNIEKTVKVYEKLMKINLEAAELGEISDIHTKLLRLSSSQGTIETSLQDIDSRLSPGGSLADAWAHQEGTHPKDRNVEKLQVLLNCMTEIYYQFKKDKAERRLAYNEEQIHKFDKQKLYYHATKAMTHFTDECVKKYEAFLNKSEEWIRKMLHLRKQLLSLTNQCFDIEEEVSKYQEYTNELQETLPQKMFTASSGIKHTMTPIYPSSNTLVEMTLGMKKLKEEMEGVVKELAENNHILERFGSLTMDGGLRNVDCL
# [3] = target: STE20-like serine/threonine-protein kinase (Homo sapiens, UniProt Q9H2G2); assay: Selectivity interaction (ActivX KiNativ screen (ex vivo kinase selectivity in human PBMCs)) EUB0001619a SLK; type: cell-based; settings: PBMC, at 1 µM
# Chain of STE20-like serine/threonine-protein kinase (Q9H2G2 whole entry, looked up): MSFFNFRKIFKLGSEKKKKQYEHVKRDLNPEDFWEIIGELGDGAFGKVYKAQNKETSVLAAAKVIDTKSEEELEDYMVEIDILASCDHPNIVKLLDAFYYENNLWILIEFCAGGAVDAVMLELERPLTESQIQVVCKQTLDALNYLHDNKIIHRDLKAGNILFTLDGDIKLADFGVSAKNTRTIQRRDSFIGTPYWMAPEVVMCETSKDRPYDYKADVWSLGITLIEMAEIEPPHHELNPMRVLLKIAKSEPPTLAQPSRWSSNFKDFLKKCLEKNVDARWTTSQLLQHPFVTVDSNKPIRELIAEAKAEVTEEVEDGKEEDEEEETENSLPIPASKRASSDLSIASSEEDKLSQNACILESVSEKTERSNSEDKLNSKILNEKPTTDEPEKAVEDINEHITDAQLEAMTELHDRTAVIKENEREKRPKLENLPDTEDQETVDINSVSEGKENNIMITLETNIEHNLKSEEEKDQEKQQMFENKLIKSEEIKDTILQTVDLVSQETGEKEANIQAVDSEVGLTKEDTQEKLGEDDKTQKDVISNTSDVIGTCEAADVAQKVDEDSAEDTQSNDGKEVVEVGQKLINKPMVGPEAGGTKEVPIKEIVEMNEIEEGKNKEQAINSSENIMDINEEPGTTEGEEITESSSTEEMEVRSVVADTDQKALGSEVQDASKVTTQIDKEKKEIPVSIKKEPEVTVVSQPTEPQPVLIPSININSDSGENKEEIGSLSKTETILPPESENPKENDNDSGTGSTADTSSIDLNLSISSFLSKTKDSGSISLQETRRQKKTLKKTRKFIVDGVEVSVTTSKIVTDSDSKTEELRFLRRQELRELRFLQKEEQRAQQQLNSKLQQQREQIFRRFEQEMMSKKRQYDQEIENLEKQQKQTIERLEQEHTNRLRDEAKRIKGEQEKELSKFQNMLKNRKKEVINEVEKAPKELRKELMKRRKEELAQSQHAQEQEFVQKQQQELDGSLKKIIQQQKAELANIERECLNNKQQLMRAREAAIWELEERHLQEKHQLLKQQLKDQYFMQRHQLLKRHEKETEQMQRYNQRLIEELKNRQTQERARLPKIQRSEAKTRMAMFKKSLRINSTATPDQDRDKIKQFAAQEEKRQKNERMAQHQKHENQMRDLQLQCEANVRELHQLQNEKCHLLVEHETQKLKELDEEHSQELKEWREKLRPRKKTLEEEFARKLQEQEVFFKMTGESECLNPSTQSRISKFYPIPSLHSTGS
# [4] = target: Ribosomal protein S6 kinase alpha-1 (Homo sapiens, UniProt Q15418); assay: Selectivity interaction (ActivX KiNativ screen (kinase selectivity in THP-1 cell lysates)) EUB0000639a RPS6KA1; type: subcellular; settings: lysate, at 0.04 µM
# Chain of Ribosomal protein S6 kinase alpha-1 (Q15418 whole entry): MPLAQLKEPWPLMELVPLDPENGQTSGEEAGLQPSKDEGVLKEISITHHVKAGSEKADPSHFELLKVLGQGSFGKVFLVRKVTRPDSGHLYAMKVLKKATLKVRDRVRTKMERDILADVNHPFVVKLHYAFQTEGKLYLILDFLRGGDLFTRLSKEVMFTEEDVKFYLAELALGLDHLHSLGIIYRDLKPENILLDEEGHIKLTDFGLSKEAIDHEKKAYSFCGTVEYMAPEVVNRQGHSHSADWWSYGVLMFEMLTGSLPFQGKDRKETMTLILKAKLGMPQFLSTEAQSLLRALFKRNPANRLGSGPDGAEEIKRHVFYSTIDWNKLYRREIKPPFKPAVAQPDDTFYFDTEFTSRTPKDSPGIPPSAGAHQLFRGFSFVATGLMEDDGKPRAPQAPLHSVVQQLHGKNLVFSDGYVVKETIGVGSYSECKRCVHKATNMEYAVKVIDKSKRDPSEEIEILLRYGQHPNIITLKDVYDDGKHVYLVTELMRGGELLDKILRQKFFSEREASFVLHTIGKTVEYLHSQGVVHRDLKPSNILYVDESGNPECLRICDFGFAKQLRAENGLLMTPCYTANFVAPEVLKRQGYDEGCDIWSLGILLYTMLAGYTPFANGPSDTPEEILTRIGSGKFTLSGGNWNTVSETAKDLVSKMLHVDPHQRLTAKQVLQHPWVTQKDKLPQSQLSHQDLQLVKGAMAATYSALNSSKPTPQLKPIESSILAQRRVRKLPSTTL
structure (smiles),measurement,setting,value
COc1cc(N(C)c2ccnc3ccc(C(F)(F)F)cc23)cc(OC)c1OC,% binding,[1],93%
Nc1cnc(N2CCc3cc(S(=O)(=O)Nc4c(F)cc(Cl)cc4F)cc(N4CCCC4=O)c32)nc1 [TP-020n],% of control,[2],85%
N#Cc1cccc(-c2c[nH]c3ncnc(N4CCOCC4)c23)c1,% of inhibition,[3],66%
CC[C@@H]1[C@H](F)C(=O)N[C@@H]1COc1nccc2cc(C(N)=O)c(OC)cc12 [ZIMLOVISERTIB],% of inhibition,[4],12.4%
